Patent US6426355B1, “Heterocyclic carboxamide-containing thiourea inhibitors of herpes viruses containing phenylenediamine group” (American Home Products, priority 1998, dated 2002)
Values after ≈ are worked out from the molar mass of the structure shown.

Key:
[1] = test system: HCMV recombinant mutant virus (RV145); assay: HCMV microtiter plate assay (beta-glucuronidase reporter); assay type: cell-based, Human Cytomegalovirus; details: HCMV in human foreskin fibroblasts
Excerpt: Ninety-six well plate cultures of human foreskin fibroblasts are infected in the presence of inhibitor compound with a HCMV recombinant mutant virus whose genome contains the prokaryotic beta-glucuronidase gene (Jefferson, R. A., S. M. Burgess, and D. Hirsh. 1986. Beta-glucuronidase from Escherichia coli as a gene fusion marker. Proc. Natl. Acad. Sci. USA 83:8447-8451) whose expression is controlled by a viral promoter. An example of such a virus is RV145 (Jones, T. R., V. P. Muzithras, and Y. Gluzman. 1991. Replacement mutagenesis of the human cytomegalovirus genome: US10 and US11 gene products are nonessential. J. Virol. 65:5860-5872). Since it is under the control of a viral promoter, beta-glucuronidase expression is an indirect indicator of growth and replication of HCMV in this assay. At 96 hours post-infection, the infected cell lysates are prepared (using 50 mM sodium phosphate [pH7.0] containing 0.1% Triton X-100 and 0.1% sarkosyl) and assayed for beta-glucuronidase activity using a substrate for the enzyme which when cleaved yields either a product which can be measured colorimetrically in a spectrophotometer or fluorescently in a microfluorimeter. Examples of such substrates are p-nitrophenyl-beta-D-glucuronide and methylumbelliferylglucuronide, respectively. The presence of an antiviral compound is indicated by the reduced expression of the HCMV genome resident beta-glucuronidase gene, compared to the absence of inhibitor. […] Data from this assay generated using varying amounts of inhibitor compound is also used to estimate the IC50 of an inhibitor compound.

HSV-1 = assay: HSV Antiviral (ELISA) assay; assay type: cell-based; details: HSV-1 in Vero cells
Protocol: Vero cells (ATCC #CCL-81) are plated on 96-well tissue culture plates at 3.5×10^4 cells per 100 μl tissue culture DMEM (Dulbecco's modified Eagle media) supplemented with 2% fetal bovine serum (FBS) in each well. After overnight incubation @ 37° C. (in 5% CO2) and 30 minutes prior to infection with HSV-1 (multiplicity of infection equal to 0.006), cells are either untreated, or treated with test compound (multiple concentrations) or reference standard drug control. After approximately 24 hours post-infection incubation @ 37° C. (in 5% CO2), cells are fixed for ELISA assay. The primary antibody is murine anti-HSV glycoprotein D monoclonal primary antibody and the secondary antibody is goat anti-mouse IgG linked to β-galactosidase. Thus the extent of viral replication is determined by assessing β-galactosidase activity by quantifying the generation of the 4-methyl umbelliferone fluorescent cleavage product after addition of the methyl umbelliferyl-β-D-galactoside (Sigma #M1633) substrate on a microfluorimeter (365 nm for excitation and 450 nm for emission). Antiviral activity (IC50) of the test compound is determined by comparing the flourescence obtained in absence of compound to that obtained in the presence of compound.

Compound	IC50 (ug/ml) HCMV [1] [µg/mL]	IC50 (ug/ml) HSV (HSV-1) [µg/mL]
O=C(Nc1ccc(NC(=S)NCCOc2ccc(Br)cc2)cc1)c1csnn1 [Example 693]	0.03 (≈ 0.0627 µM)	>10
O=C(Nc1ccc(NC(=S)NCCOc2ccc(I)cc2)cc1)c1csnn1 [Example 694]	0.04 (≈ 0.0761 µM)	10 (≈ 19 µM)
O=C(Nc1ccc(NC(=S)NCCOc2ccc(Br)cc2)cc1)c1ccco1 [Example 697]	0.04 (≈ 0.0869 µM)	7 (≈ 15.2 µM)
O=C(Nc1ccc(NC(=S)NCCOc2ccc(I)cc2)cc1)c1ccco1 [Example 698]	0.04 (≈ 0.0788 µM)	6 (≈ 11.8 µM)
O=C(Nc1ccc(NC(=S)Nc2ccc(Cl)c(Cl)c2)cc1)c1cocn1 [Example 699]	0.016 (≈ 0.0393 µM)	>10
O=C(Nc1ccc(NC(=S)Nc2cc(Cl)cc(Cl)c2)cc1)c1cscn1 [Example 700]	0.004 (≈ 0.00945 µM)	>10
O=C(Nc1ccc(NC(=S)Nc2cc(C(F)(F)F)cc(C(F)(F)F)c2)cc1)c1cscn1 [Example 701]	0.008 (≈ 0.0163 µM)	>10
O=C(Nc1ccc(NC(=S)Nc2cc(Cl)cc(Cl)c2)cc1)c1cocn1 [Example 702]	0.01 (≈ 0.0246 µM)	4 (≈ 9.82 µM)
O=C(Nc1ccc(NC(=S)NCCOc2ccc(Cl)c(Cl)c2)cc1)c1csnn1 [Example 703]	0.007 (≈ 0.0149 µM)	>10
O=C(Nc1ccc(NC(=S)Nc2ccc(Cl)c(Cl)c2)cc1)c1cscn1 [Example 704]	0.006 (≈ 0.0142 µM)	>10
O=C(Nc1ccc(NC(=S)Nc2ccc(Cl)c(C(F)(F)F)c2)cc1)c1cscn1 [Example 705]	0.006 (≈ 0.0131 µM)	>10
O=C(Nc1ccc(NC(=S)NCCNc2ccccc2)cc1)c1csnn1 [Example 706]	0.04 (≈ 0.1 µM)	>10
O=C(Nc1ccc(NC(=S)NCCc2ccc(Cl)cc2Cl)cc1)c1csnn1 [Example 707]	0.005 (≈ 0.0111 µM)	>10
O=C(Nc1ccc(NC(=S)NCCc2cccc(C(F)(F)F)c2)cc1)c1csnn1 [Example 708]	0.005 (≈ 0.0111 µM)	>10
O=C(Nc1ccc(NC(=S)NCCc2c(Cl)cccc2Cl)cc1)c1csnn1 [Example 709]	0.05 (≈ 0.111 µM)	>10
O=C(Nc1ccc(NC(=S)NCCSc2ccc(Cl)c(Cl)c2)cc1)c1csnn1 [Example 710]	0.006 (≈ 0.0124 µM)	>10
O=C(Nc1ccc(NC(=S)NCCSc2cc(C(F)(F)F)ccc2F)cc1)c1csnn1 [Example 711]	0.004 (≈ 0.00798 µM)	>10
CCc1ccc(CCNC(=S)Nc2ccc(NC(=O)c3csnn3)cc2)cc1 [Example 713]	0.009 (≈ 0.0219 µM)	>10
O=C(Nc1ccc(NC(=S)Nc2ccc(Cl)c(C(F)(F)F)c2)cc1)c1cocn1 [Example 714]	0.02 (≈ 0.0454 µM)	>10
O=C(Nc1ccc(NC(=S)Nc2cc(C(F)(F)F)cc(C(F)(F)F)c2)cc1)c1cocn1 [Example 715]	0.03 (≈ 0.0632 µM)	>10
O=C(Nc1ccc(NC(=S)NCCc2ccc(F)c(F)c2)cc1)c1csnn1 [Example 716]	0.01 (≈ 0.0238 µM)	>10
O=C(Nc1ccc(NC(=S)NCCc2ccc(C(F)(F)F)cc2)cc1)c1csnn1 [Example 717]	0.003 (≈ 0.00664 µM)	>10
